The text below walks through data of US11478460B2, “Diaryl substituted 6,5-fused ring compounds as C5aR inhibitors” (CHEMOCENTRYX, INC., priority 2017, dated 2022).

One may read the IC50 as the point on the concentration scale where inhibition reaches its midpoint.

SMILES strings stand for the structures.

The test deals with C5aR (Homo sapiens (Human), UniProt P21730). Description: Chemotaxis assay using U937 cells (C5aR mediated migration). The format is cell-based. To be noted: read-out: Mig IC50. The procedure, abridged: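 U937 monocytic cells, pretreated overnight with 0.5 mM cyclic AMP, placed at 100,000 cells in the upper well above 5 μm polycarbonate filters. Lower well held 0.03 nM C5a plus compound in HBSS/1% FBS; after 1.5 h at 37° C migrated cells counted directly or by CyQuant, giving IC50.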
C5aR, sequence (P21730 whole entry): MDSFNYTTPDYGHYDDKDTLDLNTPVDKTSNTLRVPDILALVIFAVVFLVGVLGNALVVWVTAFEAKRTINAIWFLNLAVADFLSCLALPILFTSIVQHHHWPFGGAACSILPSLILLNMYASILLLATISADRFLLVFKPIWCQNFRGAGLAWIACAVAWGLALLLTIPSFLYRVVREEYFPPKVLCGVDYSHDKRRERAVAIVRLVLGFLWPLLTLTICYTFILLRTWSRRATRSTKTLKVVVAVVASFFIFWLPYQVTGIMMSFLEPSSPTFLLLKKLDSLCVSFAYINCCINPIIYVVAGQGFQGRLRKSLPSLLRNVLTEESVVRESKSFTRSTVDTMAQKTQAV
Take `Cc1cccc(OCC(C)C)c1-n1nc2c(c1-c1ccc(NC(N)=O)cc1)CN(C(=O)c1cccc(C(C)(C)C)c1)CC2` [Example 1.433]: the IC50 lay in the range of 50 to 500 nM.

As to `Cc1cccc(OCC(C)C)c1-n1nc2c(c1-c1ccc(NC(N)=O)cc1)CN(C(=O)NC(C)(C)C)CC2` [Example 1.437], the IC50 is greater than 500 nM.

With `CC(C)COc1ccccc1-n1nc2c(c1-c1cc(F)c(NC(N)=O)cc1F)CN(C(C)(C)c1ccccc1)CC2` [Example 1.199], the IC50 was no more than 5 nM.

In the case of `CCc1cccc(CC)c1-n1nc2c(c1-c1cc(F)c(NC(N)=O)cc1F)CN(Cc1ccccc1Cl)C(C)(C)C2` [Example 1.007], the IC50 is no more than 5 nM.

Turning to `Cc1cc(-c2c3c(nn2-c2c(C)cccc2C)CCN(c2ncc(Cl)cc2Cl)C3)c(F)cc1NC(N)=O` [Example 1.097], the IC50 is no more than 5 nM.

For the compound `Cc1cccc(OCC(C)C)c1-n1nc2c(c1-c1ccc(NC(N)=O)cc1)CN(c1ccccc1C(C)C)CC2` [Example 1.474], the IC50 was no more than 5 nM.

Take `Cc1cccc(C)c1-n1nc2c(c1-c1cc(F)c(NC(N)=O)cc1F)CN(c1ccc(Cl)cc1F)CC2` [Example 1.107]: the IC50 is no more than 5 nM.

Regarding `CCc1cccc(CC)c1-n1nc2c(c1-c1cc(F)c(NC=O)cc1F)CN(Cc1ccc(C(F)(F)F)cc1C(F)(F)F)CC2` [Example 1.003], the IC50 is no more than 5 nM.

For `Cc1cccc(OCC(C)C)c1-n1nc2c(c1-c1ccc(NC(N)=O)cc1)CN(c1ncc(C(F)(F)F)cn1)CC2` [Example 1.352], the IC50 was in the range of 5 to 50 nM.

For the compound `CCc1cccc(CC)c1-n1nc2c(c1-c1cc(F)c(NC(N)=O)cc1F)CN(Cc1ccc(C(F)(F)F)cc1C)C(C)(C)C2` [Example 1.047], the IC50 was no more than 5 nM.

On to `Cc1cc(Cl)cnc1N1CCc2nn(-c3c(C)cccc3OCC(C)C)c(-c3ccc(NC(N)=O)c(F)c3)c2C1` [Example 1.206], for which the IC50 is no more than 5 nM.

Turning to `CCc1cccc(CC)c1-n1nc2c(c1-c1cc(F)c(NC(N)=O)cc1F)CN(Cc1ccc(C(F)(F)F)cc1C)CC2` [Example 1.064], the IC50 was no more than 5 nM.

Take `COc1ccc(CN2CCc3nn(-c4c(C)cccc4OCC(C)C)c(-c4ccc(NC(N)=O)cc4)c3C2)c(Cl)c1` [Example 1.304]: the IC50 lay in the range of 5 to 50 nM.

As for `Cc1cccc(C)c1-n1nc2c(c1-c1cc(F)c(NC(N)=O)cc1F)CN(c1ncc(C3CC3)cc1F)CC2` [Example 1.089], the IC50 is no more than 5 nM.

With `CCCCN1CCc2nn(-c3c(C)cccc3OCC(C)C)c(-c3ccc(NC(N)=O)c(F)c3)c2C1` [Example 1.231], the IC50 lay in the range of 5 to 50 nM.

For `Cc1cccc(OCC(C)C)c1-n1nc2c(c1-c1ccc(NC(N)=O)cc1)CN(Cc1cc(Cl)ccc1C(F)(F)F)CC2` [Example 1.325], the IC50 was no more than 5 nM.

As for `Cc1ccc(C(C)(C)C)cc1N1CCc2nn(-c3c(C)cccc3OCC(C)C)c(-c3ccc(C(N)=O)cc3)c2C1` [Example 1.445], the IC50 was 5 to 50 nM.

Consider `CC(C)COc1ccccc1-n1nc2c(c1-c1cc(F)c(NC(N)=O)cc1F)CN(c1ncc(Cl)cc1Cl)CC2` [Example 1.189], for which the IC50 was no more than 5 nM.

For `Cc1ccc(CN2CCc3nn(-c4c(C)cccc4OCC(C)C)c(-c4ccc(NC(N)=O)cc4)c3C2)c(Cl)c1` [Example 1.312], the IC50 was no more than 5 nM.

`Cc1cc(C(F)(F)F)ccc1CN1CCc2nn(-c3c(C)cccc3OCC(C)C)c(-c3ccc(NC(N)=O)cc3)c2C1` [Example 1.384]: the IC50 lay in the range of 5 to 50 nM.

As to `Cc1ccc(C(C)(C)C)cc1N1CCc2nn(-c3ccccc3C(C)C)c(-c3ccc(N(C)C(N)=O)cc3)c2C1` [Example 1.402], the IC50 is greater than 500 nM.

Take `Cc1cc(C(C)C)cnc1N1CCc2nn(-c3c(C)cccc3OCC(C)C)c(-c3ccc(NC(N)=O)cc3)c2C1` [Example 1.355]: the half-maximal inhibitory concentration (IC50) is 5 to 50 nM.

With `COC(=O)CC(c1ccccc1)N1CCc2nn(-c3c(C)cccc3C)c(-c3cc(F)c(NC(N)=O)cc3F)c2C1` (centres unmarked) [Example 1.074], the IC50 is no more than 5 nM.

Consider `Cc1cccc(OCC(C)C)c1-n1nc2c(c1-c1ccc(NC(N)=O)cc1)CN(c1ccc(Cl)cc1C(F)(F)F)CC2` [Example 1.317], for which the IC50 is no more than 5 nM.

For `Cc1cc(NC(N)=O)c(F)cc1-c1c2c(nn1-c1c(C)cccc1C)CCN(c1ncc(Cl)cc1Cl)C2` [Example 1.128], the IC50 was no more than 5 nM.

For the compound `CCc1cccc(CC)c1-n1nc2c(c1-c1ccc(NC(N)=O)cc1)CN(C(CC)c1ccccc1C(F)(F)F)CC2` (centres unmarked) [Example 1.286], the IC50 lay within 5 to 50 nM.

As to `Cc1cccc(OCC(C)C)c1-n1nc2c(c1-c1ccc(C(N)=O)cc1)CN(c1ccccc1C(C)(C)C)CC2` [Example 1.453], the IC50 lay in the range of 5 to 50 nM.

As for `Cc1cccc(C)c1-n1nc2c(c1-c1cc(F)c(NC(N)=O)cc1F)CN(Cc1ccc(Cl)cc1C(F)(F)F)CC2` [Example 1.061], the IC50 is no more than 5 nM.

As for `CC[C@@H](c1ccccc1)N1CCc2nn(-c3c(C)cccc3C)c(-c3cc(F)c(NC(N)=O)cc3F)c2C1` [Example 1.092], the IC50 is no more than 5 nM.

As for `CCc1cccc(CC)c1-n1nc2c(c1-c1cc(F)c(NC(N)=O)cc1F)CN(Cc1cc(Cl)ccc1Cl)CC2` [Example 1.070], the IC50 was no more than 5 nM.

As to `CC(C)COc1cccc(F)c1-n1nc2c(c1-c1cc(F)c(NC(N)=O)cc1F)CN(c1ncc(Cl)cc1Cl)CC2` [Example 1.188], the IC50 is no more than 5 nM.

Regarding `Cc1cccc(OCC(C)C)c1-n1nc2c(c1-c1ccc(NC(N)=O)cc1)CN(CC1(C(F)(F)F)CC1)CC2` [Example 1.372], the IC50 is 5 to 50 nM.

Consider `CCc1cccc(CC)c1-n1nc2c(c1-c1cc(F)c(NC(N)=O)cc1F)CN(C(C)(C)c1ccccc1OC)CC2` [Example 1.149], for which the IC50 was no more than 5 nM.

Take `Cc1cccc(CCC(C)C)c1-n1nc2c(c1-c1ccc(NC(N)=O)cc1)CN(CC(C)(C)C)CC2` [Example 1.336]: the IC50 lay within 5 to 50 nM.

In the case of `CCc1cccc(CC)c1-n1nc2c(c1-c1ccc(NC(N)=O)cc1)CN(Cc1cc(Cl)ccc1C(F)(F)F)CC2` [Example 1.292], the IC50 lay within 5 to 50 nM.

As to `Cc1cccc(C)c1-n1nc2c(c1-c1cc(F)c(N)cc1F)CN(c1ncc(Cl)cc1Cl)CC2` [Example 1.120], the IC50 is greater than 500 nM.

Take `Cc1cccc(OCC(C)C)c1-n1nc2c(c1-c1ccc(NC(N)=O)cc1)CN(c1ccc(F)cc1C(F)(F)F)CC2` [Example 1.318]: the IC50 was no more than 5 nM.

Regarding `CC(C)COc1cccnc1-n1nc2c(c1-c1cc(F)c(NC(N)=O)cc1F)CN(c1ncc(Cl)cc1Cl)CC2` [Example 1.171], the half-inhibitory concentration (IC50) is 5 to 50 nM.

For `Cc1cccc(OCC(C)C)c1-n1nc2c(c1-c1ccc(N)c(Cl)c1)CN(c1ncc(C(F)(F)F)cc1F)CC2` [Example 1.279], the IC50 was in the range of 5 to 50 nM.

Regarding `Cc1cccc(OCC(C)C)c1-n1nc2c(c1-c1ccc(NC(N)=O)cc1)CN(CC1CCCC1)CC2` [Example 1.404], the IC50 fell in the range of 5 to 50 nM.

`Cc1cccc(C)c1-n1nc2c(c1-c1cc(F)c(NC(=O)CN)cc1F)CN(c1ncc(Cl)cc1Cl)CC2` [Example 1.116]: the IC50 was greater than 500 nM.

Consider `CC(C)(c1ccccc1)N1CCc2nn(-c3ccccc3OC(F)(F)F)c(-c3cc(F)c(NC(N)=O)cc3F)c2C1` [Example 1.138], for which the IC50 was no more than 5 nM.

`Cc1cccc(OCC(C)C)c1-n1nc2c(c1-c1ccc(NC(N)=O)cc1)CN(c1ncc(F)cc1C(F)(F)F)CC2` [Example 1.322]: the IC50 is no more than 5 nM.

On to `CCc1cccc(CC)c1-n1nc2c(c1-c1cc(F)c(NC(N)=O)cc1F)CN(Cc1ccc(C(F)(F)F)cc1C(F)(F)F)[C@H](C)C2` [Example 1.022], for which the IC50 was no more than 5 nM.

As to `Cc1cccc(OCC(C)C)c1-n1nc2c(c1-c1ccc(NC(N)=O)cc1)CN(Cc1ccc(F)cc1C(F)(F)F)CC2` [Example 1.358], the IC50 is no more than 5 nM.

As for `COCC(c1ccccc1)N1CCc2nn(-c3c(C)cccc3OCC(C)C)c(-c3cc(F)c(NC(N)=O)cc3F)c2C1` (centres unmarked) [Example 1.131], the IC50 is no more than 5 nM.

On to `Cc1cccc(OCC(C)C)c1-n1nc2c(c1-c1ccc(NC(N)=O)cc1)CN(c1ncc(C(F)(F)F)cc1F)CC2` [Example 1.374], for which the IC50 lay in the range of 5 to 50 nM.

With `Cc1cc(C(F)(F)F)ccc1N1CCc2nn(-c3c(C)cccc3OCC(C)C)c(-c3ccc(NC(N)=O)cc3)c2C1` [Example 1.377], the IC50 is 5 to 50 nM.

In the case of `CCc1cccc(CC)c1-n1nc2c(c1-c1cc(F)c(NC(N)=O)cc1F)CN(CC(C)(C)C(F)(F)F)CC2` [Example 1.001], the IC50 is no more than 5 nM.

With `CCc1cccc(CC)c1-n1nc2c(c1-c1cc(F)c(NC(N)=O)cc1F)CN(C(CO)c1ccccc1)CC2` (centres unmarked) [Example 1.079], the IC50 was in the range of 5 to 50 nM.

`COc1cccc(C)c1-n1nc2c(c1-c1cc(F)c(NC(N)=O)cc1F)CN(c1ncc(Cl)cc1Cl)CC2` [Example 1.184]: the IC50 is no more than 5 nM.

Regarding `Cc1cccc(C)c1-n1nc2c(c1-c1cc(F)c(NC(N)=O)cc1F)CN(c1ccc(C3CC3)cc1Cl)CC2` [Example 1.093], the IC50 was no more than 5 nM.

Consider `Cc1cccc(OCC(C)C)c1-n1nc2c(c1-c1ccc(NC(N)=O)cc1)CN(Cc1ccccc1)CC2` [Example 1.382], for which the IC50 lay in the range of 5 to 50 nM.

`CCc1cccc(CC)c1-n1nc2c(c1-c1cc(F)c(NC(C)=O)cc1F)CN(Cc1ccc(C(F)(F)F)cc1C(F)(F)F)CC2` [Example 1.006]: the IC50 lay in the range of 5 to 50 nM.

Take `Cc1ccnc(C)c1-n1nc2c(c1-c1cc(F)c(NC(N)=O)cc1F)CN(C(C)(C)c1ccccc1)CC2` [Example 1.133]: the IC50 fell in the range of 50 to 500 nM.

Take `CCc1cccc(CC)c1-n1nc2c(c1-c1ccc(NC(N)=O)cc1)CN(Cc1ccccc1C(F)(F)F)CC2` [Example 1.293]: the IC50 lay within 5 to 50 nM.

As to `Cc1cccc(OCC(C)C)c1-n1nc2c(c1-c1ccc(NC(N)=O)cc1)CN(c1ccc(F)c(C(F)(F)F)c1)CC2` [Example 1.369], the IC50 fell in the range of 5 to 50 nM.

With `Cc1cccc(OCC(C)C)c1-n1nc2c(c1-c1ccc(NC(N)=O)cc1)CN(c1cc(C(F)(F)F)ccc1C(F)(F)F)CC2` [Example 1.342], the IC50 is no more than 5 nM.

`Cc1ccc(C(C)(C)C)cc1N1CCc2nn(-c3c(C)cccc3C)c(-c3ccc(NC(N)=O)cc3)c2C1` [Example 1.442]: the IC50 lay in the range of 5 to 50 nM.
